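Method: 48-hour compound exposure of cells in 96-well plates, five concentrations, linear interpolation of endpoints. Abbreviation: GI50, concentration required for 50% inhibition of growth.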 Active and inactive are the calls of the source. No stated cut-off is given here; in the data, active = GI50 up to about 1.1 µM and inactive = higher.
Legend:
Test in all cases: DTP human tumour cell line panel, 48 h
[1] = tested on: HCT-15
[2] = tested on: KM12
[3] = tested on: HCC 2998
[4] = tested on: RXF 393
[5] = tested on: M19-MEL
[6] = tested on: U-251
[7] = tested on: DMS-114
[8] = tested on: HOP-62
[9] = tested on: OVCAR-8
[10] = tested on: COLO 205
[11] = tested on: KM-20L2
[12] = tested on: HT-29
[13] = tested on: HOP-92
[14] = tested on: SF-268
[15] = tested on: IGROV-1
[16] = tested on: NCI-H460
[17] = tested on: DLD-1
[18] = tested on: EKVX
[19] = tested on: HOP-18
[20] = tested on: HCT-116
[21] = tested on: SK-OV-3
[22] = tested on: ACHN
[23] = tested on: SN12C
[24] = tested on: XF498
[25] = tested on: SNB-75
[26] = tested on: OVCAR-3
[27] = tested on: Malme-3M
[28] = tested on: CCRF-CEM
[29] = tested on: UO-31
[30] = tested on: A498
[31] = tested on: NCI-H23
[32] = tested on: DMS-273
[33] = tested on: LOX IMVI
[34] = tested on: NCI-H226
[35] = tested on: A549
[36] = tested on: SF-295
[37] = tested on: CAKI-1
[38] = tested on: OVCAR-4
[39] = tested on: SK-MEL-28
[40] = tested on: TK-10
[41] = tested on: LXFL 529
[42] = tested on: K562
[43] = tested on: UACC-62
[44] = tested on: NCI-H522
[45] = tested on: SK-MEL-2
[46] = tested on: SNB-19
[47] = tested on: MOLT-4
[48] = tested on: HL-60
[49] = tested on: RXF 631
[50] = tested on: SNB-78
[51] = tested on: UACC-257
[52] = tested on: OVCAR-5
[53] = tested on: SK-MEL-5
[54] = tested on: SF-539
[55] = tested on: M14
[56] = tested on: SW-620
[57] = tested on: 786-0
[58] = tested on: RPMI-8226

Measured: GI50

CCOC(=O)C(=O)NCCCN1CCOCC1
inactive: [2] > 100 µM | [3] > 100 µM | [4] > 100 µM | [5] > 100 µM | [6] > 100 µM | [7] > 100 µM | [8] > 100 µM | [9] > 100 µM | [10] > 100 µM | [11] > 100 µM | [12] > 100 µM | [13] > 100 µM | [14] > 100 µM | [15] > 100 µM | [16] > 100 µM | [17] > 100 µM | [18] > 100 µM | [19] > 100 µM | [20] > 100 µM | [21] > 100 µM | [22] > 100 µM | [23] > 100 µM | [24] > 100 µM | [25] > 100 µM | [26] > 100 µM | [27] > 100 µM | [28] > 100 µM | [29] > 100 µM | [30] > 100 µM | [31] > 100 µM | [32] > 100 µM | [33] > 100 µM | [34] > 100 µM | [35] > 100 µM | [36] > 100 µM | [37] > 100 µM | [38] > 100 µM | [39] > 100 µM | [40] > 100 µM | [41] > 100 µM | [42] > 100 µM | [43] > 100 µM | [44] > 100 µM | [45] > 100 µM | [46] > 100 µM | [47] > 100 µM | [48] > 100 µM | [49] > 100 µM | [50] > 100 µM | [51] > 100 µM | [52] > 100 µM | [53] > 100 µM | [54] > 100 µM | [55] > 100 µM | [56] > 100 µM
> 100 µM: [1]

Cc1cccc(C(=O)c2cccc3ccccc23)c1C(=O)O
inactive: [4] > 100 µM | [5] > 100 µM | [6] > 100 µM | [7] 3.24 µM | [8] > 100 µM | [9] > 100 µM | [10] 23.3 µM | [11] > 100 µM | [12] > 100 µM | [13] > 100 µM | [14] > 100 µM | [15] > 100 µM | [16] > 100 µM | [57] > 100 µM | [17] > 100 µM | [18] > 100 µM | [19] 50.9 µM | [20] > 100 µM | [21] 39.1 µM | [22] > 100 µM | [23] > 100 µM | [24] > 100 µM | [25] > 100 µM | [26] > 100 µM | [27] > 100 µM | [28] > 100 µM | [29] > 100 µM | [30] > 100 µM | [31] > 100 µM | [32] > 100 µM | [33] > 100 µM | [34] > 100 µM | [35] > 100 µM | [36] > 100 µM | [38] > 100 µM | [39] > 100 µM | [40] > 100 µM | [58] > 100 µM | [41] > 100 µM | [42] > 100 µM | [43] > 100 µM | [44] > 100 µM | [45] > 100 µM | [46] > 100 µM | [47] > 100 µM | [49] > 100 µM | [50] > 100 µM | [51] > 100 µM | [52] > 100 µM | [53] > 100 µM | [54] > 100 µM | [55] > 100 µM | [56] > 100 µM
> 100 µM: [1]

Reference: ChEMBL document CHEMBL1201862, “PubChem BioAssay data set” (2004)
